Data taken from PMC8700061, “Fragment-Sized and Bidentate (Immuno)Proteasome Inhibitors Derived from Cysteine and Threonine Targeting Warheads” (Cells, 2021).

What was measured:
GSH = assay: HPLC-based GSH reactivity assay; type: physicochemical; conditions: 5 mM glutathione (GSH) in PBS buffer; 250 µM compound, 5 mM GSH, PBS pH 7.4; read-out: Reactivity with GSH (HPLC-based assay), t1/2
Protocol: GSH reactivity assay was performed as described by Petri et al.; 500 μM solution of compound (PBS buffer pH 7.4, 10% MeCN, 250 μL) with 200 μM solution of indoprofen as internal standard were added to 10 mM GSH solution (dissolved in PBS buffer, 250 μL) in a 1:1 ratio. […] The final mixture was analyzed by HPLC after 0, 1, 2, 4, 8, 12, 24, 48, and 72 h. The degradation kinetics were also studied using the method described in [24], except that pure PBS buffer was used instead of GSH solution. […] The area under the curve (AUC) values were determined by integrating the HPLC spectra and then corrected with the internal standard.

[1] = HPLC-based stability assay in PBS; type: physicochemical; conditions: PBS pH 7.4
Protocol: GSH reactivity assay was performed as described by Petri et al.; 500 μM solution of compound (PBS buffer pH 7.4, 10% MeCN, 250 μL) with 200 μM solution of indoprofen as internal standard were added to 10 mM GSH solution (dissolved in PBS buffer, 250 μL) in a 1:1 ratio. The final concentration was 250 μM compound, 100 μM indoprofen, 5 mM GSH and 5% MeCN (500 μL). The final mixture was analyzed by HPLC after 0, 1, 2, 4, 8, 12, 24, 48, and 72 h. The degradation kinetics were also studied using the method described in [24], except that pure PBS buffer was used instead of GSH solution. In this experiment, the final concentration of the mixture was 250 μM fragment, 100 μM indoprofen and 5% MeCN. The area under the curve (AUC) values were determined by integrating the HPLC spectra and then corrected with the internal standard.

SMILES	half-life at 250 µM (GSH) [min]	Stability in Buffer (HPLC-based assay) [1]
CC(C)C[C@H](NC(=O)Cc1ccc2oc(C#N)nc2c1)B1O[C@@H]2C[C@@H]3C[C@@H](C3(C)C)[C@]2(C)O1 [Compound 39]	3 to 60	stable ^b,c
COc1cccc2oc(C#N)nc12 [Compound 6]	< 3	stable ^c,d
CC(C)C[C@H](NC(=O)CCn1c(C#N)nc2ccccc21)B1O[C@@H]2C[C@@H]3C[C@@H](C3(C)C)[C@]2(C)O1 [Compound 30]		stable ^b,c
CC(C)C[C@H](NC(=O)CCCn1c(C#N)nc2ccccc21)B1O[C@@H]2C[C@@H]3C[C@@H](C3(C)C)[C@]2(C)O1 [Compound 31]		stable ^b,c
CC(C)C[C@H](NC(=O)CCn1c(C#N)nc2cccc(Cl)c21)B1O[C@@H]2C[C@@H]3C[C@@H](C3(C)C)[C@]2(C)O1 [Compound 38]		stable ^b,c
